Laboratory results: PubChem BioAssay (NCI)
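96-well plates; 48 h exposure; 5 concentrations. Endpoints by linear interpolation between flanking doses. Not reached: highest tested concentration assigned. Abbreviation: GI50, concentration required for 50% inhibition of growth. TGI marks complete inhibition of growth.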

Tests used:
Experiment in all cases: DTP human tumour cell line panel, 48 h
A549 NSCLC = tested on: A549 NSCLC
CAKI-1 renal = tested on: CAKI-1 renal
EKVX NSCLC = tested on: EKVX NSCLC
LOX IMVI melanoma = tested on: LOX IMVI melanoma
MDA-MB-231 breast = tested on: MDA-MB-231 breast
SK-OV-3 ovarian = tested on: SK-OV-3 ovarian
SNB-19 CNS = tested on: SNB-19 CNS
SR leukemia = tested on: SR leukemia
UACC-62 melanoma = tested on: UACC-62 melanoma
HCC-2998 colon = tested on: HCC-2998 colon

SMILES | TGI (A549 NSCLC) [µM] | TGI (CAKI-1 renal) [µM] | TGI (EKVX NSCLC) [µM] | TGI (LOX IMVI melanoma) [µM] | TGI (MDA-MB-231 breast) [µM] | TGI (SK-OV-3 ovarian) [µM] | TGI (SNB-19 CNS) [µM] | TGI (SR leukemia) [µM] | TGI (UACC-62 melanoma) [µM] | TGI (HCC-2998 colon) [µM] | GI50 (A549 NSCLC) [µM] | GI50 (CAKI-1 renal) [µM] | GI50 (EKVX NSCLC) [µM] | GI50 (HCC-2998 colon) [µM] | GI50 (LOX IMVI melanoma) [µM] | GI50 (MDA-MB-231 breast) [µM] | GI50 (SK-OV-3 ovarian) [µM] | GI50 (SNB-19 CNS) [µM] | GI50 (SR leukemia) [µM] | GI50 (UACC-62 melanoma) [µM]
CCN(CC)CCCC(C)Nc1ccnc2cc3ccccc3cc12 (configuration not stated) | > 100 | 42.2 | > 100 | > 100 | > 100 | 50 | 84.5 | > 100 | 49.1 |  |  |  |  |  |  |  |  |  |  | 
O=C(C[C@H](NC(=O)OCc1ccccc1)C(=O)NC1Cc2ccccc2OC1=O)OCc1ccccc1 (some centres not stated) |  | > 100 |  |  | 71.6 | > 100 | > 100 | > 100 |  | 66.5 |  |  |  |  |  |  |  |  |  | 
Cc1ccc(NP(=O)(Oc2ccccc2)N(CCCl)CCCl)cc1 (configuration not stated) | > 100 | > 100 | > 100 |  |  | > 100 |  | > 100 | > 100 | > 100 |  |  |  |  |  |  |  |  |  | 
OC1(c2ccc(Cl)cc2)c2c(ccc3c2OCO3)C2=NCCN21 (configuration not stated) | > 100 | > 100 | > 100 | > 100 | 91.8 | > 100 | > 100 | 53 | 37 |  |  |  |  |  |  |  |  |  |  | 
O=C(O)c1cc(=O)[nH]c(SCc2ccccc2)n1 | > 100 | > 100 | > 100 | > 100 | > 100 |  | > 100 | > 100 | > 100 |  |  |  |  |  |  |  |  |  |  | 
CC(C)CCC[C@@H](C)[C@H]1CC[C@H]2[C@@H]3CC[C@H]4C[C@H](N)CC[C@]4(C)[C@H]3CC[C@]12C | 48.1 | 59 | 43.4 | 83 | 8.22 | 64.5 | 46.9 |  | 43.1 | 64 |  |  |  |  |  |  |  |  |  | 
COc1ccc(C2CC(c3cccc(Nc4ccncc4)c3)=NN2c2ccc(Cl)cc2)cc1 (configuration not stated) | 3.65 | 2.64 | 3.27 | 3.03 | 2.65 | 5.79 | 3.23 | 3.38 | 3.22 | 3.22 | 1.87 | 1.32 | 1.66 | 1.74 | 1.66 | 1.33 | 2.19 | 1.66 | 1.35 | 1.73
Cc1cccc2cc3c(ccc4ccccc43)c[n+]12 | > 100 |  | > 100 | > 100 | > 100 |  | 50.9 | > 100 | 63.1 | 42.7 |  |  |  |  |  |  |  |  |  | 
N#Cc1c(NC(=S)Nc2ccc(Cl)cc2)sc2c1CCCC2 |  | > 100 | > 100 | > 100 | > 100 |  | > 100 | 89.1 | > 100 | > 100 |  |  |  |  |  |  |  |  |  | 
CC(=O)Oc1c(C)c2c(O)c3c1C1=C(OCOC1=C(C)C3=O)/C(C)=C\C(C)(O)C(O)C(C)C(O)C1C(=O)OC(C(C)C1O)C(C)(O)/C=C/C=C(C)C(=O)N2 (configuration not stated) | > 100 | 64.5 | > 100 | > 100 | > 100 | > 100 | > 100 | 83.3 | > 100 | > 100 |  |  |  |  |  |  |  |  |  | 
CSc1nc(NC2OCC(OC(C)=O)C(OC(C)=O)C2OC(C)=O)c(N=C(C)C(C)=O)c(=O)[nH]1 (configuration not stated) | > 100 | > 100 | > 100 | > 100 |  |  | > 100 | > 100 |  |  |  |  |  |  |  |  |  |  |  | 
O=S1(=O)C(c2ccccc2)C(N2CCCCC2)C1C1CC2c3ccccc3C1c1ccccc12 (configuration not stated) | > 100 | > 100 | > 100 | > 100 | > 100 | > 100 | > 100 | > 100 | > 100 |  |  |  |  |  |  |  |  |  |  | 
COc1ccc2c(c1)CCN=C2Cc1cc(OC)c(OC)cc1CCCl | > 100 | > 100 | > 100 | > 100 | > 100 | > 100 | > 100 | > 100 | > 100 | > 100 |  |  |  |  |  |  |  |  |  | 
O=C(C=P(c1ccccc1)(c1ccccc1)c1ccccc1)c1cccc(-c2cccc([N+](=O)[O-])c2)c1 | > 100 | 6.26 | > 100 | 9.63 | 7.04 | 51.2 | > 100 |  |  | > 100 |  |  |  |  |  |  |  |  |  | 
CN(c1cc2ncc(=O)[nH]c2cc1NC(N)=NCc1ccc(Cl)cc1)C1CCCCC1 | 18.8 | 14.5 | 14.5 | 5.88 | 9.04 | 15.8 |  | 5.23 | 14 | 5.29 | 9.11 | 7.47 | 6.65 | 1.73 | 1.75 | 2.46 | 7.6 |  | 1.49 | 6.8
CCN1C=C/C(=C\C=C/c2cc[n+](CC)c3ccccc23)c2ccccc21 | 21.2 |  | 47 |  | 9.32 | 15.1 | 15.2 | 9.65 | 23.8 | 19 |  |  |  |  |  |  |  |  |  | 
CCOC(=O)C[C@@H]1C2(C=C[C@@]13CO3)OCC(C)(C)CO2 | > 100 | > 100 | > 100 | > 100 | > 100 | > 100 |  | > 100 | > 100 | > 100 |  |  |  |  |  |  |  |  |  | 
C=CCc1cc(-c2cc(CC=C)c(O)c(CNC)c2)cc(CNC)c1O | 33 |  |  | 27.2 |  |  | 26.1 |  | 31.9 | 30 |  |  |  |  |  |  |  |  |  | 
CCCCCCCCCCCCCCCc1ccc(OCC(O)CO)cc1 (configuration not stated) | 50.1 | > 100 | 78.5 | 32.1 |  | > 100 | > 100 | > 100 | 48 | 49.9 |  |  |  |  |  |  |  |  |  | 
c1ccc(C2CC(c3cccc(Nc4ccncc4)c3)=NN2c2ccccc2)cc1 (configuration not stated) |  | 2.74 | 3.42 | 3.05 | 3 | 5.49 | 3 |  | 3.04 | 2.96 |  | 1.39 | 1.61 | 1.58 | 1.66 | 1.61 | 2.38 | 1.63 |  | 1.67
CC(C)(C)OC(=O)NCC(=O)NC1c2ccsc2/C(=N/O)[C@H]1O (some centres not stated) | > 100 | > 100 | > 100 | > 100 | > 100 | > 100 | > 100 | > 100 | > 100 | > 100 |  |  |  |  |  |  |  |  |  | 
CO/C=C(/C(=O)OC)c1ccccc1[C@@H]1CC1c1cccc(F)c1 (some centres not stated) | 78.5 | 70.4 | 88.1 |  | > 100 | 79.7 | > 100 | > 100 | 50.2 | 94.8 |  |  |  |  |  |  |  |  |  | 
Cc1nc2c(n1C)C(=O)c1nc(CBr)[nH]c(=O)c1C2=O | > 100 |  | 54.9 | > 100 |  | > 100 | > 100 |  | > 100 |  |  |  |  |  |  |  |  |  |  | 
